Where two headings read alike, the source gives them in different places.
Legend:
BRD4 = BRD4 (Homo sapiens, UniProt O60885); experiment: In vitro AlphaScreen protein binding assay (competition with biotinylated JQ1)
Procedure: Assays were performed with minor modifications from the manufacturer's protocol (PerkinElmer, USA). All reagents were diluted in 50 mM HEPES, 150 mM NaCl, 0.1% w/v BSA, and 0.01% w/v Tween® 20 at pH 7.5 and allowed to equilibrate to room temperature prior to addition to plates. After addition of Alpha beads to master solutions, all subsequent steps were performed in low light conditions. […] After a 1000-rpm spin-down for 1 minute, 100 nL of the solutions of compounds of the invention in DMSO from stock plates were added by pin transfer using a Janus Workstation (PerkinElmer, USA). The streptavidin-coated donor beads (25 μg/ml final) were added as with previous solution in a 2×, 10 μL volume. Following this addition, the plates were sealed with foil to block light exposure and to prevent evaporation. The plates were spun down again at 1000 rpm for 1 minute. Next, the plates were incubated in the room with the plate reader (for temperature equilibration) for 1 hour prior to reading the assay. Signal is stable for up to 3 hours after donor bead addition.

[1] = test system: lung carcinoma cell line H2171; experiment: Cellular IC50 in lung carcinoma cell line H2171; assay type: cell-based
Procedure: Cells (e.g., BRD4 dependant cells) were counted and adjusted to 60,000 cells/mL. Using a Biotek EL406, 50 μL of the cells in media were distributed into 384 well white plates from Thermo. Immediately after plating, compounds of the invention in DMSO were distributed to plates. For large plate sets, cells were returned to a 37° C. incubator while not in use. The compounds were added to plates using a 100 nL 384 well pin transfer manifold on a Janus workstation. Stocks were arrayed in 10 point quadruplicate dose response in DMSO stock in 384-well Greiner compound plates. After addition of the compounds, plates were incubated for three days in a 37° C. incubator. Cell viability was read out using ATPlite from Perkin Elmer. Plates were removed from the incubator and brought to room temperature prior to use. Lyophilized powder was resuspended in lysis buffer and diluted 1:2 with DI water. 25 μL of this solution was added to each well using the Biotek liquid handler. Plates were sealed with adherent aluminum seals prior to vortexing and spinning down at 1000 g for 1 minute. Plates were incubated for 15 minutes at room temperature before signal was read on an Envision Plate Reader.

[2] = test system: BRD4-dependent Nut-Midline Carcinoma line 797; experiment: Cell viability (ATPlite) in BRD4 dependant cell line 797; conditions: Homo sapiens
[3] = read-out: BRD4--IC50, Table 6, biochemical
[4] = read-out: BRD4--IC50, Table 7, biochemical
[5] = read-out: BRD4--IC50, Table 5, biochemical
[6] = Table 1, in vitro, AlphaScreen, inhibiting the activity of BRD4

| IC50 (BRD4; [3]) | EC50 ([2]; read-out: 797--EC50 (μM)) | EC50 [2] | IC50 (BRD4; [6]) | SMILES | further results |
| --- | --- | --- | --- | --- | --- |
| – | 9.91 µM | – | – | CCCCN1C(=O)c2ccccc2NC(=O)C1c1ccc(-c2c(C)noc2C)c(OC)c1 (stereo not drawn) [UMB18, 2-Butyl-3-(4-(3,5-dimethylisoxazol-4-yl)-3-methoxyphenyl)-2,3-dihydro-1H-benzo[e][1,4]diazepine-1,4(5H)-dione] | IC50 (BRD4; [5]): 13 µM |
| 11.8 µM | 18.4 µM | 18.4 µM | 11.8 µM | Cc1noc(C)c1-c1ccc(-c2nc3ccc(Cl)cn3c2NCc2ccccc2)cc1 [UMB20, N-Benzyl-6-chloro-2-(4-(3,5-dimethylisoxazol-4-yl)phenyl)imidazo[1,2-α]pyridin-3-amine] | – |
| 18.8 µM | 49.1 µM | 49.1 µM | 18.8 µM | Cc1noc(C)c1-c1ccc(-c2nc3cnccn3c2NCc2ccccc2)cc1 [UMB21, N-Benzyl-2-(4-(3,5-dimethylisoxazol-4-yl)phenyl)imidazo[1,2-α]-pyrazin-3-amine] | – |
| – | – | 12.4 µM | 68.3 µM | Cc1noc2ccc(-c3ccc(-c4nc5ccccn5c4NCc4ccccc4)cc3)cc12 [UMB22] | – |
| 31.5 µM | 20.7 µM | 20.7 µM | 31.5 µM | COc1ccc(Nc2c(-c3ccc(-c4c(C)noc4C)cc3)nc3ccc(Cl)cn23)cc1 [UMB23, 6-Chloro-2-(4-(3,5-dimethylisoxazol-4-yl)phenyl)-N-(4-methoxy-phenyl)imidazo-[1,2-α]pyridine-3-amine] | – |
| 2.89 µM | 11.8 µM | 11.8 µM | 2.89 µM | COc1ccc(Nc2c(-c3ccc(-c4c(C)noc4C)cc3)nc3cc(OC)ncn23)cc1 [UMB24, 2-(4-(3,5-Dimethylisoxazol-4-yl)phenyl)-7-methoxy-N-(4-methoxy-phenyl)imidazo[1,2-c]pyrimidin-3-amine] | – |
| – | – | 20.2 µM | 5.1 µM | Cc1noc(C)c1-c1cccc(-c2nc3ccccn3c2NCc2ccccc2)c1 [UMB26] | – |
| – | > 100 µM | 207 µM | 2.05 µM | Cc1noc(C)c1-c1cccc(C2Nc3ccccc3NC3=C2C(=O)OC3)c1 (stereo not drawn) [UMB27, 10-(3-(3,5-Dimethylisoxazol-4-yl)phenyl)-3,4,9,10-tetrahydro-1H-benzo[b]furo[3,4-e][1,4]diazepin-1-one] | IC50 (BRD4; [5]): 2.05 µM |
| 0.904 µM | 5.07 µM | 5.07 µM | 0.904 µM | Cc1noc(C)c1-c1ccc(-c2nc3ccccn3c2NC2CCCCC2)cc1 [UMB28, N-Cyclohexyl-2-(4-(3,5-dimethylisoxazol-4-yl)phenyl)imidazo[1,2-α]pyridin-3-amine] | – |
| 0.479 µM | 2.04 µM | 2.04 µM | 0.479 µM | Cc1noc(C)c1-c1ccc(-c2nc3ccccn3c2NC(C)(C)C)cc1 [UMB29, N-(t-Butyl)-2-(4-(3,5-dimethylisoxazol-4-yl)phenyl)imidazo[1,2-α]pyridin-3-amine] | – |
| 2.76 µM | 7.36 µM | 7.36 µM | 2.76 µM | COc1ccc(Nc2c(-c3ccc(-c4c(C)noc4C)cc3)nc3ccccn23)cc1 [UMB30, 2-(4-(3,5-Dimethylisoxazol-4-yl)phenyl)-N-(4-methoxyphenyl)imidazo-[1,2-α]pyridin-3-amine] | – |
| 1.17 µM | 2.19 µM | 2.19 µM | 1.17 µM | Cc1noc(C)c1-c1ccc(-c2nc3ccc(Cl)cn3c2NC(C)(C)C)cc1 [UMB31, N-(t-Butyl)-6-chloro-2-(4-(3,5-dimethylisoxazol-4-yl)phenyl)-imidazo-[1,2-α]pyridin-3-amine] | – |
| – | > 100 µM | – | – | Cc1noc(C)c1-c1ccc(-c2nc3cnccn3c2NC(C)(C)C)cn1 [UMB53, N-(tert-butyl)-2-(6-(3,5-dimethylisoxazol-4-yl)pyridin-3-yl)imidazo[1,2-a]pyrazin-3-amine] | IC50 (BRD4; [4]): 51.9 µM |
| – | 8.29 µM | – | – | Cc1noc(C)c1-c1ccc(-c2nc3cnccn3c2NC(C)(C)C)nc1 [UMB54, N-(tert-butyl)-2-(5-(3,5-dimethylisoxazol-4-yl)pyridin-2-yl)imidazo[1,2-a]pyrazin-3-amine] | IC50 (BRD4; [4]): 12.9 µM |
| – | 12.8 µM | – | – | Cc1noc(C)c1-c1ccc(-c2nc3cnccn3c2NC(C)(C)C)cc1F [UMB55, N-(tert-butyl)-2-(4-(3,5-dimethylisoxazol-4-yl)-3-fluorophenyl)imidazo[1,2-a]pyrazin-3-amine] | IC50 (BRD4; [4]): 13 µM |
| 20.7 µM | – | – | – | Cc1noc(C)c1-c1ccc(-c2nc3ccncn3c2NC(C)(C)C)cc1 [UMB56, N-(Tert-butyl)-2-(4-(3,5-dimethylisoxazol-4-yl)phenyl)imidazo[1,2-c]pyrimidin-3-amine] | – |
| 0.807 µM | 0.494 µM | – | – | Cc1noc(C)c1-c1ccc(-c2nc3cnccn3c2NC(C)C)cc1 [UMB57, 2-(4-(3,5-dimethylisoxazol-4-yl)phenyl)-N-isopropylimidazo[1,2-a]pyrazin-3-amine] | – |

Second part, the compound before the results:

| SMILES | IC50 (BRD4; [3]) | EC50 ([2]; read-out: 797--EC50 (μM)) | EC50 [2] | IC50 (BRD4; [6]) | further results |
| --- | --- | --- | --- | --- | --- |
| Cc1noc(C)c1-c1ccc(-c2nc3ccccn3c2N)cc1 [Compound 12a, 2-(4-(3,5-Dimethylisoxazol-4-yl)phenyl)imidazo[1,2-a]pyridin-3-amine] | 3.89 µM | – | – | – | – |
| Cc1noc(C)c1-c1ccc(-c2nc3cnccn3c2N[C@@H](C)c2ccccc2)cc1 [Compound 21a, (S)-2-(4-(3,5-dimethylisoxazol-4-yl)phenyl)-N-(1-phenylethyl)imidazo[1,2-a]pyrazin-3-amine] | 2.86 µM | – | – | – | – |
| Cc1noc(C)c1-c1ccc(-c2nc3cnccn3c2NCC(=O)O)cc1 [Compound 22a, 2-((2-(4-(3,5-Dimethylisoxazol-4-yl)phenyl)imidazo[1,2-a]pyrazin-3-yl)amino)acetic acid] | – | – | – | – | IC50 (BRD4; BRD4--IC50 (μM), Table 6, biochemical): > 100 µM |
| CCOC(=O)CNc1c(-c2ccc(-c3c(C)noc3C)cc2)nc2cnccn12 [Compound 23a, Ethyl 2-((2-(4-(3,5-dimethylisoxazol-4-yl)phenyl)imidazo[1,2-a]pyrazin-3-yl)amino)acetate] | 4.53 µM | – | – | – | – |
| Cc1noc(C)c1-c1ccc(-c2nc3cnccn3c2NCC(=O)OC(C)(C)C)cc1 [Compound 24a, Tert-butyl (2-(4-(3,5-dimethylisoxazol-4-yl)phenyl)imidazo[1,2-a]pyrazin-3-yl)glycinate] | 4.96 µM | – | – | – | – |
| Cc1ccc2nc(-c3ccc(-c4c(C)noc4C)cc3)c(NC(C)(C)C)n2c1 [Compound 27a, N-(tert-butyl)-2-(4-(3,5-dimethylisoxazol-4-yl)phenyl)-6-methylimidazo[1,2-a]pyridin-3-amine] | 3.17 µM | – | – | – | – |
| Cc1noc(C)c1-c1ccc(-c2nc3c(C(F)(F)F)cccn3c2NC(C)(C)C)cc1 [Compound 28a, N-(tert-butyl)-2-(4-(3,5-dimethylisoxazol-4-yl)phenyl)-8-(trifluoromethyl)imidazo[1,2-a]pyridin-3-amine] | 11.9 µM | – | – | – | – |
| COC(=O)c1ccc2nc(-c3ccc(-c4c(C)noc4C)cc3)c(NC(C)(C)C)n2c1 [Compound 29a, Methyl 3-(tert-butylamino)-2-(4-(3,5-dimethylisoxazol-4-yl)phenyl)imidazo[1,2-a]pyridine-6-carboxylate] | 1.62 µM | – | – | – | – |
| Cc1noc(C)c1-c1ccc(-c2nc3ccc(C(=O)O)cn3c2NC(C)(C)C)cc1 [Compound 30a, 3-(Tert-butylamino)-2-(4-(3,5-dimethylisoxazol-4-yl)phenyl)imidazo[1,2-a]pyridine-6-carboxylic acid] | 0.968 µM | – | – | – | – |
| Cc1noc(C)c1-c1ccc(-c2nc3ncccn3c2NC(C)(C)C)cc1 [Compound 33a, N-(Tert-butyl)-2-(4-(3,5-dimethylisoxazol-4-yl)phenyl)imidazo[1,2-a]pyrimidin-3-amine] | 0.86 µM | – | – | – | – |
| CCCCNc1c(-c2ccc(-c3c(C)noc3C)cc2)nc2cnccn12 [Compound 35a, N-butyl-2-(4-(3,5-dimethylisoxazol-4-yl)phenyl)imidazo[1,2-a]pyrazin-3-amine] | 1.66 µM | – | – | – | – |
| COc1cc(-c2c(C)noc2C)ccc1-c1nc2cnccn2c1NC(C)(C)C [Compound 39a, N-(tert-butyl)-2-(4-(3,5-dimethylisoxazol-4-yl)-2-methoxyphenyl)imidazo[1,2-a]pyrazin-3-amine] | – | – | – | – | IC50 (BRD4; [4]): 0.562 µM |
| COc1cc(-c2c(C)noc2C)ccc1-c1nc2cnccn2c1NC(C)C [Compound 40a, 2-(4-(3,5-dimethylisoxazol-4-yl)-2-methoxyphenyl)-N-isopropylimidazo[1,2-a]pyrazin-3-amine] | – | – | – | – | IC50 (BRD4; [4]): 0.474 µM |
| Cc1noc(C)c1-c1ccc(-c2nc3ccccn3c2NCc2ccccc2)cc1 [UMB11, N-Benzyl-2-(4-(3,5-dimethylisoxazol-4-yl)phenyl)imidazo[1,2-α]pyridin-3-amine] | – | – | – | – | IC50 ([1]; Homo sapiens, NCI-H2171, Table 2, cellular, lung carcinoma cell line H2171): 0.76 µM; cellular activity in H2171 ([1]; text b616): show cellular activity in H2171 |
| COc1ccc(Nc2c(-c3ccc(-c4c(C)noc4C)cc3)nc3cnccn23)cc1 [UMB25, 2-(4-(3,5-Dimethylisoxazol-4-yl)phenyl)-N-(4-methoxyphenyl)imidazo[1,2-a]pyrazin-3-amine] | 7.86 µM | 32.8 µM | 32.8 µM | – | – |
